# Laboratory results from US9938322B2, “β-hairpin peptidomimetics” (priority 2013, dated 2018).
# Where a SMILES comes first, the peptide text is derived from it. [ ]: non-standard residue; d: D form. The star is where a group is joined. Tic(7-OH) = O=C(O)[C@@H]1Cc2ccc(O)cc2CN1; Pro(3S-OH) = O=C(O)[C@H]1NCC[C@@H]1O; Dap(CONH2) = NC(=O)NC[C@H](N)C(=O)O; cisHyp = O=C(O)[C@@H]1C[C@H](O)CN1; Cha = N[C@@H](CC1CCCCC1)C(=O)O; Chg = N[C@H](C(=O)O)C1CCCCC1; Tle = CC(C)(C)[C@H](N)C(=O)O; Pip = O=C(O)[C@@H]1CCCCN1; dDab = NCC[C@@H](N)C(=O)O; Orn = NCCC[C@H](N)C(=O)O; Dab = NCC[C@H](N)C(=O)O; Dap = NC[C@H](N)C(=O)O; Bn = c1ccc(C*)cc1
# System: human red blood cells (hRBC)
# Experiment: Hemolysis of human red blood cells
# Assay type: cell-based
# Conditions: red cells of human, 1 h, 100
# Summary of the method: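 Washed fresh human erythrocytes (20% v/v, about 0.9×10^9 cells/ml final) incubated with peptide at 100 μg/ml for 1 h at 37° C with shaking. Supernatant OD540 read; hemolysis expressed relative to 2.5% Triton X-100 (100%) and PBS with 0.001% acetic acid (0%).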
row,Compound,Hemolysis at 100 μg/ml [%]
1,CC(C)[C@@H]1NC(=O)[C@@H]2CCCN2C(=O)[C@H]2CCCN2C(=O)[C@H](CO)NC(=O)[C@H](C)NC(=O)[C@H](C(C)(C)C)NC(=O)[C@H](CCN)NC(=O)[C@H](Cc2c[nH]c3ccccc23)NC(=O)[C@H](CCN)NC(=O)[C@H](CCN)NC(=O)[C@H](CCCN)NC(=O)[C@H](CCN)NC(=O)[C@H](Cc2ccc(O)cc2)NC(=O)[C@H](CO)NC1=O [compound 49] (cyclo(VSY[Dab][Orn][Dab][Dab]W[Dab][Tle]AS[dP]P)),1
2,CC(C)[C@@H]1NC(=O)[C@@H]2CCCN2C(=O)[C@H]2CCCN2C(=O)[C@H](CO)NC(=O)[C@H](C)NC(=O)[C@H](C(C)(C)C)NC(=O)[C@H](CCN)NC(=O)[C@H](Cc2c[nH]c3ccccc23)NC(=O)[C@H](CCN)NC(=O)[C@@H](CCN)NC(=O)[C@H](CCCN)NC(=O)[C@H](CCN)NC(=O)[C@H](CC2CCCCC2)NC(=O)[C@H](CO)NC1=O [compound 50] (cyclo(VS[Cha][Dab][Orn][dDab][Dab]W[Dab][Tle]AS[dP]P)),4
3,CC(C)[C@@H]1NC(=O)[C@@H]2CCCN2C(=O)[C@H]2CCCN2C(=O)[C@H](CO)NC(=O)[C@H](C)NC(=O)[C@H](C(C)(C)C)NC(=O)[C@H](CCN)NC(=O)[C@H](Cc2c[nH]c3ccccc23)NC(=O)[C@H](CCN)NC(=O)[C@@H](CCN)NC(=O)[C@H](CCCN)NC(=O)[C@H](CCN)NC(=O)[C@H](CC2CCCCC2)NC(=O)[C@H](C)NC1=O [compound 51] (cyclo(VA[Cha][Dab][Orn][dDab][Dab]W[Dab][Tle]AS[dP]P)),1
4,CC(C)[C@@H]1NC(=O)[C@@H]2[C@@H](O)CCN2C(=O)[C@H]2CCCN2C(=O)[C@H](CO)NC(=O)[C@H](C)NC(=O)[C@H](C(C)(C)C)NC(=O)[C@H](CCN)NC(=O)[C@H](Cc2c[nH]c3ccccc23)NC(=O)[C@H](CCN)NC(=O)[C@@H](CCN)NC(=O)[C@H](CCCN)NC(=O)[C@H](CCN)NC(=O)[C@H](Cc2ccc(O)cc2)NC(=O)[C@H](CO)NC1=O [compound 56] (cyclo(AS[dP][Pro(3S-OH)]VSY[Dab][Orn][dDab][Dab]W[Dab][Tle])),1
5,CC(C)C[C@@H]1NC(=O)[C@@H]2[C@@H](O)CCN2C(=O)[C@H]2CCCN2C(=O)[C@H](CO)NC(=O)[C@H](C)NC(=O)[C@H](C(C)(C)C)NC(=O)[C@H](CCN)NC(=O)[C@H](Cc2c[nH]c3ccccc23)NC(=O)[C@H](CCN)NC(=O)[C@@H](CCN)NC(=O)[C@H](CCCN)NC(=O)[C@H](CCN)NC(=O)[C@H](Cc2ccc(O)cc2)NC(=O)[C@H](CO)NC1=O [compound 57] (cyclo(AS[dP][Pro(3S-OH)]LSY[Dab][Orn][dDab][Dab]W[Dab][Tle])),1
6,CC(C)C[C@@H]1NC(=O)[C@@H]2[C@@H](O)CCN2C(=O)[C@H]2CCCN2C(=O)[C@H](CO)NC(=O)[C@H](C)NC(=O)[C@H](C(C)(C)C)NC(=O)[C@H](CCN)NC(=O)[C@H](Cc2c[nH]c3ccccc23)NC(=O)[C@H](CCN)NC(=O)[C@@H](CCN)NC(=O)[C@H](CCCN)NC(=O)[C@H](CCN)NC(=O)[C@H](CC2CCCCC2)NC(=O)[C@H](CO)NC1=O [compound 58] (cyclo(AS[dP][Pro(3S-OH)]LS[Cha][Dab][Orn][dDab][Dab]W[Dab][Tle])),1
7,CC(C)C[C@@H]1NC(=O)[C@@H]2[C@@H](O)CCN2C(=O)[C@H]2CCCN2C(=O)[C@H](CO)NC(=O)[C@H](CNC(N)=O)NC(=O)[C@H](C(C)(C)C)NC(=O)[C@H](CCN)NC(=O)[C@H](Cc2c[nH]c3ccccc23)NC(=O)[C@H](CCN)NC(=O)[C@@H](CCN)NC(=O)[C@H](CCCN)NC(=O)[C@H](CCN)NC(=O)[C@H](CC2CCCCC2)NC(=O)[C@H](CO)NC1=O [compound 59] (cyclo([Cha][Dab][Orn][dDab][Dab]W[Dab][Tle][Dap(CONH2)]S[dP][Pro(3S-OH)]LS)),1
8,CC(C)C[C@@H]1NC(=O)[C@@H]2[C@@H](O)CCN2C(=O)[C@H]2CCCN2C(=O)[C@H](CO)NC(=O)[C@H](CNC(N)=O)NC(=O)[C@H](C(C)(C)C)NC(=O)[C@H](CCN)NC(=O)[C@H](Cc2c[nH]c3ccccc23)NC(=O)[C@H](CCN)NC(=O)[C@@H](CCN)NC(=O)[C@H](CCCN)NC(=O)[C@H](CCN)NC(=O)[C@H](CC2CCCCC2)NC(=O)[C@H](C)NC1=O [compound 60] (cyclo(LA[Cha][Dab][Orn][dDab][Dab]W[Dab][Tle][Dap(CONH2)]S[dP][Pro(3S-OH)])),1
9,C[C@@H]1NC(=O)[C@H](C(C)(C)C)NC(=O)[C@H](CCN)NC(=O)[C@H](Cc2c[nH]c3ccccc23)NC(=O)[C@H](CCN)NC(=O)[C@@H](CCN)NC(=O)[C@H](CCCN)NC(=O)[C@H](CCN)NC(=O)[C@H](CC2CCCCC2)NC(=O)[C@H](CN)NC(=O)[C@H](Cc2c[nH]c3ccccc23)NC(=O)[C@@H]2Cc3ccc(O)cc3CN2C(=O)[C@H]2CCCN2C(=O)[C@H](CO)NC1=O [compound 61] (cyclo(AS[dP][Tic(7-OH)]W[Dap][Cha][Dab][Orn][dDab][Dab]W[Dab][Tle])),2
10,C[C@@H]1NC(=O)[C@H](C(C)(C)C)NC(=O)[C@H](CCN)NC(=O)[C@H](Cc2c[nH]c3ccccc23)NC(=O)[C@H](CCN)NC(=O)[C@@H](CCN)NC(=O)[C@H](CCCN)NC(=O)[C@H](CCN)NC(=O)[C@H](CC2CCCCC2)NC(=O)[C@H](CN)NC(=O)[C@H](Cc2c[nH]c3ccccc23)NC(=O)[C@@H]2CCCCN2C(=O)[C@H]2CCCN2C(=O)[C@H](CO)NC1=O [compound 63] (cyclo(AS[dP][Pip]W[Dap][Cha][Dab][Orn][dDab][Dab]W[Dab][Tle])),3
11,C[C@@H]1NC(=O)[C@H](Cc2c[nH]c3ccccc23)NC(=O)[C@@H]2C[C@H](OCc3ccccc3)CN2C(=O)[C@H]2CCCN2C(=O)[C@H](CO)NC(=O)[C@H](C)NC(=O)[C@H](C(C)(C)C)NC(=O)[C@H](CCN)NC(=O)[C@H](Cc2c[nH]c3ccccc23)NC(=O)[C@H](CCN)NC(=O)[C@H](CCN)NC(=O)[C@H](CCCN)NC(=O)[C@H](CCN)NC(=O)[C@H](CC2CCCCC2)NC1=O [compound 64] (cyclo(WA[Cha][Dab][Orn][Dab][Dab]W[Dab][Tle]AS[dP][cisHyp](Bn))),3
12,C[C@@H]1NC(=O)[C@H](Cc2c[nH]c3ccccc23)NC(=O)[C@@H]2[C@@H](O)CCN2C(=O)[C@H]2CCCN2C(=O)[C@H](CO)NC(=O)[C@H](CO)NC(=O)[C@H](C(C)(C)C)NC(=O)[C@H](CCN)NC(=O)[C@H](Cc2c[nH]c3ccccc23)NC(=O)[C@H](CCN)NC(=O)[C@@H](CCN)NC(=O)[C@H](CCCN)NC(=O)[C@H](CCN)NC(=O)[C@H](C2CCCCC2)NC1=O [compound 65] (cyclo(WA[Chg][Dab][Orn][dDab][Dab]W[Dab][Tle]SS[dP][Pro(3S-OH)])),3.5
13,C[C@@H]1NC(=O)[C@H](CC2CCCCC2)NC(=O)[C@H](CCN)NC(=O)[C@H](Cc2c[nH]c3ccccc23)NC(=O)[C@H](CCN)NC(=O)[C@@H](CCN)NC(=O)[C@H](CCCN)NC(=O)[C@H](CCN)NC(=O)[C@H](C(C)(C)C)NC(=O)[C@H](CO)NC(=O)[C@H](Cc2ccc(O)cc2)NC(=O)[C@@H]2CCCN2C(=O)[C@H]2CCCN2C(=O)[C@H](CO)NC1=O [compound 66] (cyclo(YS[Tle][Dab][Orn][dDab][Dab]W[Dab][Cha]AS[dP]P)),4
